Experimental data as given in PubChem BioAssay AID248 (DTP/NCI, 2004).
Values joined by “and” are separate entries in the source; they are usually repeats but may differ in a detail not shown here. Identical values can stand only once. Toxic doses and inconclusive results are not listed. Cut-off read from the data, not from the text of the source: active = T/C of 150% or more; inactive = T/C below 125%.

System: L1210 leukemia ip in BDF1 mice, survival T/C
Assay: NCI In Vivo Anticancer Drug Screen. Data for tumor model L1210 Leukemia (intraperitoneal) in B6D2F1 (BDF1) mice
Conditions: endpoint: mean survival time, higher = longer survival
Summary of the method: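 Read-out is survival time, reported as the treated-group measurement over the vehicle-control measurement.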

[1] = dose: 100.0 mg/kg/injection, schedule: Q01DX001 (ip), vehicle: carboxymethylcellulose (CMC)
[2] = dose: 200.0 mg/kg/injection, schedule: Q01DX001 (ip), vehicle: carboxymethylcellulose (CMC)
[3] = dose: 400.0 mg/kg/injection, schedule: Q01DX001 (ip), vehicle: carboxymethylcellulose (CMC)
[4] = dose: 100.0 mg/kg/injection, schedule: Q04DX003 (ip), vehicle: saline with Tween-80
[5] = dose: 200.0 mg/kg/injection, schedule: Q04DX003 (ip), vehicle: saline with Tween-80
[6] = dose: 400.0 mg/kg/injection, schedule: Q04DX003 (ip), vehicle: saline with Tween-80
[7] = dose: 100.0 mg/kg/injection, schedule: Q01DX009 (ip), vehicle: saline with Tween-80
[8] = dose: 200.0 mg/kg/injection, schedule: Q01DX009 (ip), vehicle: saline with Tween-80
[9] = dose: 400.0 mg/kg/injection, schedule: Q01DX009 (ip), vehicle: saline with Tween-80
[10] = dose: 100.0 mg/kg/injection, schedule: Q01DX001 (ip), vehicle: saline with Tween-80
[11] = dose: 200.0 mg/kg/injection, schedule: Q01DX001 (ip), vehicle: saline with Tween-80
[12] = dose: 400.0 mg/kg/injection, schedule: Q01DX001 (ip), vehicle: saline with Tween-80
[13] = dose: 100.0 mg/kg/injection, schedule: Q04DX003 (ip), vehicle: saline
[14] = dose: 200.0 mg/kg/injection, schedule: Q04DX003 (ip), vehicle: saline
[15] = dose: 400.0 mg/kg/injection, schedule: Q04DX003 (ip), vehicle: saline
[16] = dose: 100.0 mg/kg/injection, schedule: Q04DX002 (ip), vehicle: Klucel (hydroxypropylcellulose) (HPC)
[17] = dose: 100.0 mg/kg/injection, schedule: Q01DX001 (ip), vehicle: saline
[18] = dose: 200.0 mg/kg/injection, schedule: Q01DX001 (ip), vehicle: saline
[19] = dose: 400.0 mg/kg/injection, schedule: Q01DX001 (ip), vehicle: saline

Measured: T/C

Nc1ncccc1C(=O)O
inactive: dose: 62.5 mg/kg/injection, schedule: Q01DX010 (ip), vehicle: saline 96 % of control and 100 % of control | [1] 101 % of control | dose: 125.0 mg/kg/injection, schedule: Q01DX010 (ip), vehicle: saline 93 % of control and 109 % of control | [2] 98 % of control | dose: 250.0 mg/kg/injection, schedule: Q01DX010 (ip), vehicle: saline 102 % of control and 90 % of control | [3] 95 % of control | dose: 500.0 mg/kg/injection, schedule: Q01DX010 (ip), vehicle: saline 100 % of control and 90 % of control

O=[N+]([O-])c1cccc(OCCCCBr)c1
inactive: dose: 100.0 mg/kg/injection, schedule: Q04DX003 (ip), vehicle: other 97 % of control | dose: 200.0 mg/kg/injection, schedule: Q04DX003 (ip), vehicle: other 110 % of control | dose: 400.0 mg/kg/injection, schedule: Q04DX003 (ip), vehicle: other 102 % of control

O=C(Oc1ccc(O)cc1)c1ccccc1
inactive: dose: 25.6 mg/kg/injection, schedule: Q04DX002 (ip), vehicle: saline 88 % of control | dose: 64.0 mg/kg/injection, schedule: Q04DX002 (ip), vehicle: saline 95 % of control | dose: 160.0 mg/kg/injection, schedule: Q04DX002 (ip), vehicle: saline 92 % of control | dose: 400.0 mg/kg/injection, schedule: Q04DX002 (ip), vehicle: saline 92 % of control

CC(Cc1ccccc1)NC(=O)CCNNC(=O)c1ccncc1 (stereo unspecified)
inactive: dose: 12.5 mg/kg/injection, schedule: Q01DX009 (ip), vehicle: Klucel (hydroxypropylcellulose) (HPC) 96 % of control | dose: 25.0 mg/kg/injection, schedule: Q01DX009 (ip), vehicle: Klucel (hydroxypropylcellulose) (HPC) 100 % of control | dose: 50.0 mg/kg/injection, schedule: Q01DX009 (ip), vehicle: Klucel (hydroxypropylcellulose) (HPC) 103 % of control | dose: 50.0 mg/kg/injection, schedule: Q04DX003 (ip), vehicle: Klucel (hydroxypropylcellulose) (HPC) 98 % of control | dose: 100.0 mg/kg/injection, schedule: Q01DX009 (ip), vehicle: Klucel (hydroxypropylcellulose) (HPC) 100 % of control | dose: 100.0 mg/kg/injection, schedule: Q04DX003 (ip), vehicle: Klucel (hydroxypropylcellulose) (HPC) 96 % of control | dose: 200.0 mg/kg/injection, schedule: Q01DX009 (ip), vehicle: Klucel (hydroxypropylcellulose) (HPC) 91 % of control | dose: 200.0 mg/kg/injection, schedule: Q04DX003 (ip), vehicle: Klucel (hydroxypropylcellulose) (HPC) 88 % of control

O=C(Cl)c1cc2ccccc2o1
inactive: [4] 89 % of control | [5] 92 % of control | [6] 95 % of control

Cc1cc(=O)cc(C)n1C
inactive: [7] 96 % of control | [8] 100 % of control | [9] 92 % of control

OCC1OC(c2ccccc2)OC(CO)C(O)C1O (stereo unspecified)
inactive: [4] 88 % of control | [5] 88 % of control

C=CCCCCCCCCCC(CCCCCC)C(=O)O (stereo unspecified)
inactive: [10] 101 % of control | [11] 111 % of control | [12] 92 % of control

c1ccc(N=Nc2cccnn2)cc1
inactive: dose: 50.0 mg/kg/injection, schedule: Q04DX002 (ip), vehicle: saline with Tween-80 97 % of control | dose: 100.0 mg/kg/injection, schedule: Q04DX002 (ip), vehicle: saline with Tween-80 105 % of control | dose: 200.0 mg/kg/injection, schedule: Q04DX002 (ip), vehicle: saline with Tween-80 94 % of control

CN(C)c1ccc(/C=C(\C#N)c2ccc([N+](=O)[O-])cc2)c(Cl)c1
inactive: [4] 91 % of control | [5] 96 % of control | [6] 96 % of control

CCOC(=O)P(=O)(OCC)OCC
inactive: [1] 101 % of control | [2] 95 % of control | [3] 104 % of control

CC(=O)Nc1ccc(N)cc1N
inactive: dose: 50.0 mg/kg/injection, schedule: Q04DX003 (ip), vehicle: saline 98 % of control | [4] 102 % of control | [13] 92 % of control and 89 % of control | [5] 115 % of control | [14] 98 % of control | [6] 100 % of control | [15] 89 % of control

c1ccc(-c2nc(-c3ccccc3)c(-c3ccccc3)nc2-c2ccccc2)cc1
inactive: dose: 100.0 mg/kg/injection, schedule: Q01DX001 (ip), vehicle: gum acacia 89 % of control | dose: 200.0 mg/kg/injection, schedule: Q01DX001 (ip), vehicle: gum acacia 91 % of control | dose: 400.0 mg/kg/injection, schedule: Q01DX001 (ip), vehicle: gum acacia 86 % of control

Cc1cccc(C(=O)OCc2ccccc2CN2CCCCC2)c1
inactive: dose: 25.0 mg/kg/injection, schedule: Q04DX002 (ip), vehicle: Klucel (hydroxypropylcellulose) (HPC) 105 % of control | dose: 50.0 mg/kg/injection, schedule: Q04DX002 (ip), vehicle: Klucel (hydroxypropylcellulose) (HPC) 105 % of control | [16] 105 % of control

O=C(NCc1ccccc1)Sc1ccccc1
inactive: dose: 87.5 mg/kg/injection, schedule: Q01DX001 (ip), vehicle: Klucel (hydroxypropylcellulose) (HPC) 96 % of control

CN=C(N)c1ccc(N=C(N)c2ccc(N=C(N)c3ccc(C(N)=NC)cc3)cc2)cc1
inactive: dose: 3.7 mg/kg/injection, schedule: Q01DX001 (ip), vehicle: water 108 % of control | dose: 5.3 mg/kg/injection, schedule: Q01DX001 (ip), vehicle: water 103 % of control | dose: 8.0 mg/kg/injection, schedule: Q01DX001 (ip), vehicle: water 102 % of control | dose: 12.0 mg/kg/injection, schedule: Q01DX001 (ip), vehicle: water 108 % of control

C[n+]1cccc2c(C(=O)O)cccc21
inactive: [17] 97 % of control | [18] 96 % of control

CC(=O)On1nnc2c(Cl)c(Cl)c(Cl)c(Cl)c21
inactive: [13] 94 % of control | [14] 94 % of control | [15] 87 % of control

CC1NNC(=O)c2ccccc21 (stereo unspecified)
inactive: [17] 95 % of control | [18] 96 % of control | [19] 94 % of control

Nc1nc(N)c2nc(CNc3ccc(Cl)cc3)cnc2n1
inactive: dose: 20.0 mg/kg/injection, schedule: Q01DX009 (ip), vehicle: Klucel (hydroxypropylcellulose) (HPC) 96 % of control | dose: 40.0 mg/kg/injection, schedule: Q01DX009 (ip), vehicle: Klucel (hydroxypropylcellulose) (HPC) 96 % of control | dose: 80.0 mg/kg/injection, schedule: Q01DX009 (ip), vehicle: Klucel (hydroxypropylcellulose) (HPC) 104 % of control

NC(=O)NC1c2ccccc2-c2ccccc21
inactive: dose: 50.0 mg/kg/injection, schedule: Q01DX001 (ip), vehicle: carboxymethylcellulose (CMC) 93 % of control | [1] 93 % of control | [2] 93 % of control | [3] 93 % of control

Nc1ncnn1C(=O)NCCCl
inactive: dose: 100.0 mg/kg/injection, schedule: Q01DX009 (ip), vehicle: saline 94 % of control | [13] 101 % of control | dose: 200.0 mg/kg/injection, schedule: Q01DX009 (ip), vehicle: saline 97 % of control | [14] 101 % of control | dose: 400.0 mg/kg/injection, schedule: Q01DX009 (ip), vehicle: saline 97 % of control | [15] 101 % of control

CC(Cc1ccccc1)C(=O)c1ccccc1 (stereo unspecified)
inactive: [10] 102 % of control | [7] 102 % of control | [11] 94 % of control | [8] 97 % of control | [12] 94 % of control | [9] 98 % of control

CCCCc1c(-c2ccccc2)nc(N)[nH]c1=O
inactive: dose: 100.0 mg/kg/injection, schedule: Q01DX001 (ip), vehicle: Klucel (hydroxypropylcellulose) (HPC) 103 % of control | dose: 200.0 mg/kg/injection, schedule: Q01DX001 (ip), vehicle: Klucel (hydroxypropylcellulose) (HPC) 102 % of control | dose: 400.0 mg/kg/injection, schedule: Q01DX001 (ip), vehicle: Klucel (hydroxypropylcellulose) (HPC) 104 % of control

CC(C)(C)NC(=O)NCc1ccc(Cl)cc1
inactive: [16] 100 % of control | dose: 200.0 mg/kg/injection, schedule: Q04DX002 (ip), vehicle: Klucel (hydroxypropylcellulose) (HPC) 88 % of control | dose: 400.0 mg/kg/injection, schedule: Q04DX002 (ip), vehicle: Klucel (hydroxypropylcellulose) (HPC) 111 % of control

O=[N+]([O-])c1ccc(CC2=NCCc3cc4c(cc32)OCO4)cc1
inactive: [17] 98 % of control | [18] 96 % of control | [19] 105 % of control
